ChEMBL document CHEMBL3244041, “Synthesis and structure-activity relationships of 5H,11 H-[I]benzopyrano[4,3-g]benzopyran-9-carboxylic acids” (1977)

How the values were obtained:
Rattus norvegicus [1] = experiment: Antiallergic activity in iv dosed adrenalectomized Sprague-Dawley rat assessed as inhibition of ovalbumin-induced passive cutaneous anaphylaxis reaction after 12 days by Evans blue staining; type: functional; conditions: 288 h
Rattus norvegicus [2] = experiment: Antiallergic activity in adrenalectomized Sprague-Dawley rat assessed as inhibition of ovalbumin-induced passive cutaneous anaphylaxis reaction at 1 mg/kg, iv after 12 days by Evans blue staining; type: functional; conditions: 288 h

Compound	ED50 (Rattus norvegicus [1]) [mg/kg]	inhibition in vivo at 1 mg/kg (Rattus norvegicus [2]) [%]
CC1(C)Oc2cc3oc(C(=O)O)cc(=O)c3cc2-c2ccc(OCCO)cc21.NCCO	0.11	82.8
CC1(C)Oc2cc3oc(C(=O)O)cc(=O)c3cc2-c2ccc(S(=O)(=O)O)cc21	–	0
O=C([O-])c1cc(=O)c2c(OCC(O)COc3cccc4oc(C(=O)[O-])cc(=O)c34)cccc2o1.[Na+].[Na+] [CROMOLYN SODIUM]	2.88	26.7
O=C(O)c1cc(=O)c2cc3c(c(O)c2o1)OCc1ccccc1-3	–	33.4
COc1cc2c(cc1OC)C(C)(C)Oc1cc3oc(C(=O)O)cc(=O)c3cc1-2	–	67.7
CCCOc1ccc2c(c1)C(C)(C)Oc1cc3oc(C(=O)O)cc(=O)c3cc1-2	–	40
CC1(C)Oc2cc3oc(C(=O)O)cc(=O)c3cc2-c2cc(Cl)ccc21	–	25
CC1(C)Oc2c(cc3c(=O)cc(C(=O)O)oc3c2N)-c2ccccc21	–	64.3
COc1cc2c(cc1Br)-c1cc3c(=O)cc(C(=O)O)oc3cc1OC2(C)C	–	0
CC1(C)Oc2cc3oc(C(=O)O)cc(=O)c3cc2-c2ccccc21.NCCO	0.5	70.3
CC1(C)Oc2cc3oc(C(=O)O)cc(=O)c3c(O)c2-c2ccccc21	–	0
CC1(C)Oc2c(cc3c(=O)cc(C(=O)O)oc3c2[N+](=O)[O-])-c2ccccc21	–	20
COc1c2c(cc3c(=O)cc(C(=O)O)oc13)-c1ccccc1CO2	–	50
CC1(C)Oc2cc3oc(C(=O)O)cc(=O)c3cc2-c2ccc(F)cc21.NCCO	0.87	60
CCCCC1(CCCC)Oc2cc3oc(C(=O)O)cc(=O)c3cc2-c2ccccc21	–	25
CC1(C)Oc2cc3oc(C(=O)O)cc(=O)c3cc2-c2ccc(Cl)cc21	–	60
NCCO.O=C(O)c1cc(=O)c2cc3c(oc(=O)c4ccccc43)c(O)c2o1	2	55.6
CC1(C)Oc2cc3oc(C(=O)O)cc(=O)c3cc2-c2ccc(N)cc21	–	77.8
CC1(C)Oc2cc3oc(C(=O)O)cc(=O)c3cc2-c2ccc([N+](=O)[O-])cc21	–	50
CC1(C)Oc2c(cc3c(=O)cc(C(=O)O)oc3c2Cl)-c2ccccc21	–	66.7
O=C([O-])c1cc(=O)c2cc3c(cc2o1)OCc1ccccc1-3.[Na+]	0.3	64.3
Cc1c2c(cc3oc(C(=O)O)cc(=O)c13)OC(C)(C)c1ccccc1-2	–	0
COc1cccc2c1COc1cc3oc(C(=O)O)cc(=O)c3cc1-2	–	0
CC(=O)Oc1ccc2c(c1)C(C)(C)Oc1cc3oc(C(=O)O)cc(=O)c3cc1-2	–	73.4
COc1ccc2c(c1)C(C)(C)Oc1cc3oc(C(=O)O)cc(=O)c3cc1-2	–	66.7
CC1(C)Oc2cc3oc(C(=O)[O-])cc(=O)c3cc2-c2ccc(O)cc21.[Na+]	0.3	77.8
